Assay results reported in patent US20250332108A1 (Veradermics, Incorporated, priority 2024, published 2025).
Where two headings read alike, the source gives them in different places.

Key:
[1] = cited from earlier work; for Duration plasma concentrations above 20 ng/ml: immediate release
[2] = cited from earlier work
[3] = test system: dogs; conditions: short-term administration 0.5 mg to 10 mg/kg/day; cited from earlier work
[4] = test system: rats; conditions: cited from earlier work
[5] = test system: mice; conditions: dietary, cited from earlier work
[6] = test system: Salmonella; conditions: Salmonella (Ames) test; cited from earlier work
[7] = test system: rat hepatocyte; conditions: in vitro rat hepatocyte unscheduled DNA synthesis assay; cited from earlier work
[8] = test system: rat bone marrow; conditions: rat bone marrow micronucleus assay; cited from earlier work
[9] = test system: mouse bone marrow; conditions: mouse bone marrow micronucleus assay; cited from earlier work
[10] = test system: Chinese hamster cells; conditions: Chinese hamster cells at long exposure times; cited from earlier work
[11] = test system: human lymphocytes; conditions: cited from earlier work
[12] = test system: rabbits; conditions: cited from earlier work
[13] = test system: rats; conditions: cited from earlier work; remark: listed apart in the source
[14] = test system: subjects with hair loss; conditions: cited from earlier work
[15] = test system: male adults with AGA; conditions: 5 mg oral at bedtime, cited from earlier work
[16] = test system: hypertensive patients; conditions: intravenous infusion; cited from earlier work
[17] = test system: patients; conditions: cited from earlier work
[18] = test system: person with androgenetic alopecia; assay: Case studies: oral minoxidil in males with androgenetic alopecia (blood pressure, heart rate, hair growth)
[19] = oral, dose level 2.5 mg, healthy volunteers
[20] = oral, dose level 5 mg, healthy volunteers
[21] = oral, dose level 10 mg, healthy volunteers

In the case of Nc1cc(N2CCCCC2)nc(N)[n+]1[O-] [Minoxidil], the “Dose dependence of PK and urinary excretion” value ([1]; 2.5 mg, 5 mg, or 10 mg oral, healthy volunteers) is listed as “dose-independent PK”, the “Effect on blood pressure” value ([1]; 2.5 mg, 5 mg, or 10 mg oral, normotensive subjects) is listed as “little effect on blood pressure in normotensive subjects” and the “Duration plasma concentrations above 20 ng/ml” value ([1]; 5 mg dose level) is listed as “around 1 h”. For the same compound, the “Duration plasma concentrations above 20 ng/ml” value ([1]; 10 mg dose level) was “around 2 h”, the Observed half-life ([1]; immediate release formulation, oral) was “around 1 h” and the “AUC(last)” value [1, 19] was 25.3 ng·h/mL. The Cmax [1, 19] was 16.8 ng/mL, the T1/2 [1, 19] was 64.2 min and the Tmax [1, 19] was 34 min. The “AUC(last)” value [1, 20] was 55.1 ng·h/mL, the Cmax [1, 20] was 37.2 ng/mL and the T1/2 [1, 20] was 76.2 min. For the same compound, the Tmax [1, 20] was 23.3 min, the “AUC(last)” value [1, 21] was 112 ng·h/mL and the Cmax [1, 21] was 74.7 ng/mL. For the same compound, the T1/2 [1, 21] was 80.4 min, the Tmax [1, 21] was 25.1 min and the “Predominant metabolite in urine” value ([2]; first 12 h, hypertensive patients) was “A glucuronide conjugate”. For the same compound, the Renal clearance ([2]; human, in vivo) was 73.3 mL/min, the “Radioactivity found in feces” value ([2]; hypertensive patients) was 3% and the “Total radioactivity recovered from urine” value ([2]; hypertensive patients) was 97%. The “Time to peak plasma levels” value ([2]; oral) was no more than 1 h, the “Fraction of oral minoxidil metabolized” value ([2]; primarily by conjugation with glucuronic acid) was “About 90%” and the “Radiolabeled minoxidil and metabolites recovered from urine” value ([2]; within 24 h after oral administration, hypertensive patients) was “Over 80%”. The Cardiac lesions [3] was “various cardiac lesions have been found”, the Carcinogenicity ([4]; doses 15 times the usual human dosage for 22 months) was “No evidence of carcinogenicity” and the Carcinogenicity findings ([4]; oral administration, two-year study) was “no positive findings”. For the same compound, the “Incidence of hepatic nodules” value ([5]; up to 2 years, 63 mg/kg/day) was “increased incidence of hepatic nodules in males”, the “Incidence of malignant lymphomas” value ([5]; up to 2 years, 10, 25, and 63 mg/kg/day) was “increased incidence of malignant lymphomas in females at all dose levels” and the Mutagenicity [6] was “not mutagenic”. For the same compound, the Mutagenicity [7] was “not mutagenic”, the Mutagenicity [8] was “not mutagenic” and the Mutagenicity [9] was “not mutagenic”. The Cytogenetic assay result [10] was “equivocal result”, the Cytogenetic assay result [11] was “negative” and the Fetal resorption ([12]; 5 times the maximum recommended oral antihypertensive human dose) was “increased fetal resorption”. For the same compound, the Teratogenic effects [12] was “no evidence of teratogenic effects”, the Fetal resorption [13] was “not seen” and the Teratogenic effects [13] was “no evidence of teratogenic effects”. For the same compound, the “Serious adverse events (SAEs) reported” value ([14]; topical foam 5% versus topical solution 2% in female pattern hair loss, 322 subjects, NCT01145625) was “Ten serious adverse events (SAEs) were reported”, the “SAEs reported in subjects treated with minoxidil” value ([14]; topical foam 5% versus vehicle topical foam, 404 subjects, NCT01226459) was “Six SAEs were reported” and the Subjects reporting edema ([15]; 24 week follow up, 34 subjects) was 2.9%. For the same compound, the Subjects reporting headache ([15]; 24 week follow up, 34 subjects) was 20.6%, the Subjects reporting vertigo ([15]; 24 week follow up, 34 subjects) was 2.9% and the Subjects reporting hypertrichosis ([15]; 24 weeks, 34 subjects) was 55.9%. The Adverse cardiovascular outcomes ([15]; 24 weeks) was “No adverse cardiovascular outcomes were observed”, the “Steady state plasma concentrations associated with significant (>5 beats per minute) changes in heart rate” value [16] was “above 20 ng/mL” and the “Temporary decrease in hematocrit, hemoglobin, and erythrocyte count (hemodilution)” value ([17]; chronic therapy for severe hypertension, initially) was “approximately 7%”. For the same compound, the “Patients in whom hypertrichosis was hardly or not at all tolerable” value ([17]; human, in vivo) was “less than 10%”, the “Plasma concentrations above which hemodynamic effects are typically seen” value ([17]; human, in vivo) was greater than 20 ng/mL and the “Patients exhibiting ECG alterations in direction and magnitude of T waves” value ([17]; soon after starting therapy) was “approximately 60%”. The Adverse events ([18]; 0.625 mg four times a day) was “No unwanted hair growth or other adverse events were noticed”, the “Effect on blood pressure” value ([18]; 0.625 mg four times a day) was “did not experience significant reductions in blood pressure” and the Adverse events ([18]; 1.25 mg QID) was “No unwanted hair growth or other adverse events, including any cardiac effects, were noticed”.
